Reference: BindingDB's records for PubMed 8391122 (Merck Sharp & Dohme Research Laboratories, 1993)
pKi: −log10 of the molar value.

What was measured:
[1] = target: T1, Gamma-aminobutyric acid receptor subunit alpha-5 (Homo sapiens, UniProt P31644)
T1 sequence (P31644 whole entry): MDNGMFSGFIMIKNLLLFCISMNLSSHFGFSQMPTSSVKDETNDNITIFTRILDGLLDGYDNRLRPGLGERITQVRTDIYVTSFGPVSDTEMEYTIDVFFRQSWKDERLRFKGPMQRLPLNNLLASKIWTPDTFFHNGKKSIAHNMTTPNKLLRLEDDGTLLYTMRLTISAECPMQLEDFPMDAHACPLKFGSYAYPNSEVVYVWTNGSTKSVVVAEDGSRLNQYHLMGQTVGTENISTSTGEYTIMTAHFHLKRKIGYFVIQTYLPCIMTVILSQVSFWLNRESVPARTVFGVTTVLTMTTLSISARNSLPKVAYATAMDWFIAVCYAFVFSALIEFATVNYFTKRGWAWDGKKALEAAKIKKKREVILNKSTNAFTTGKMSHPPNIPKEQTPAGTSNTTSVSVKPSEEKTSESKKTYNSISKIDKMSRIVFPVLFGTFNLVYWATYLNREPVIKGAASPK

[2] = target: T2, Gamma-aminobutyric acid receptor subunit alpha-2 (Homo sapiens, UniProt P47869)
T2 sequence (P47869 whole entry): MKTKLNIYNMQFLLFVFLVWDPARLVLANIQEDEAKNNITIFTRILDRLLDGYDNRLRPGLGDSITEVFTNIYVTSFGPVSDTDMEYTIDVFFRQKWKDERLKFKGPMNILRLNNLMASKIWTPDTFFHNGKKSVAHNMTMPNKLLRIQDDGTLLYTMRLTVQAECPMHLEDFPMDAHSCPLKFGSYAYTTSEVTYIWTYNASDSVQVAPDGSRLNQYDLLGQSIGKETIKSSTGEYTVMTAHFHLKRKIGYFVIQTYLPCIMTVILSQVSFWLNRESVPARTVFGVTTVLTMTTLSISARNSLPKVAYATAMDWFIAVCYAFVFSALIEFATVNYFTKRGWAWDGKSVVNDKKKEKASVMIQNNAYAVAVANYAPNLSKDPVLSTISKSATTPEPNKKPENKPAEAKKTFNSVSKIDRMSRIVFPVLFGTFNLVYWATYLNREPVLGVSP

[3] = target: T3, Gamma-aminobutyric acid receptor subunit alpha-3 (Homo sapiens, UniProt P34903)
T3 sequence (P34903 whole entry): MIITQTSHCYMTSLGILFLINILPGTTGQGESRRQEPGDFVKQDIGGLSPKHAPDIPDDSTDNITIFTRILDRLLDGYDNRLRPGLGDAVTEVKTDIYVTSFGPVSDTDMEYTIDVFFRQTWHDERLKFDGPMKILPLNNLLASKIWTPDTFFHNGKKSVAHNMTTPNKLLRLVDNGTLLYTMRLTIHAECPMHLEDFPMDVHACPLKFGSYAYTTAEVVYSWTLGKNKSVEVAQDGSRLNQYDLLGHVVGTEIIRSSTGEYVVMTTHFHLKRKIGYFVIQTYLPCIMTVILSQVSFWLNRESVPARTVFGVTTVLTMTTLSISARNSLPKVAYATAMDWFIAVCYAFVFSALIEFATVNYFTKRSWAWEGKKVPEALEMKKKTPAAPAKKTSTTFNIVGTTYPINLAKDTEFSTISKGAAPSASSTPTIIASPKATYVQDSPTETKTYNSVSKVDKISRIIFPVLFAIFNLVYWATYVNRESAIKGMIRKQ

[4] = target: T4, Gamma-aminobutyric acid receptor subunit alpha-1 (Homo sapiens, UniProt P14867)
T4 sequence (P14867 whole entry): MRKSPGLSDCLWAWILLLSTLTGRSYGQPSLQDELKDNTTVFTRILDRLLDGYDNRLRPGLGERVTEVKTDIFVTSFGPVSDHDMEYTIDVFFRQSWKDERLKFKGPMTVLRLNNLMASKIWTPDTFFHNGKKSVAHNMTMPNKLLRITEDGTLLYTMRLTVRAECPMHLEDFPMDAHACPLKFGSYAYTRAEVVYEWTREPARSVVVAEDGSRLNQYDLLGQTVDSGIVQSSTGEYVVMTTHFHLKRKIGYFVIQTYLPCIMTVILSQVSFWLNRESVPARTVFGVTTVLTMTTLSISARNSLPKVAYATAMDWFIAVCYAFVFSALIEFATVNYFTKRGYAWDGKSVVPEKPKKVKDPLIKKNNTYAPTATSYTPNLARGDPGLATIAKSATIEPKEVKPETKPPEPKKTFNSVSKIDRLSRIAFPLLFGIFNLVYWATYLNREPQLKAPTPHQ

Structure (SMILES)	pKi [1]	pKi [2]	pKi [3]	pKi [4]
CCOC(=O)c1ncn2c1CN(C)C(=O)c1cc(N=[N+]=[N-])ccc1-2 [RO-154513]	9.15	7.98	8.11	8.00
Cc1ccc(-c2nc3ccc(C)cn3c2CC(=O)N(C)C)cc1 [Ambien]	< 5.00	–	–	–
COC(=O)c1cc2c(cn1)[nH]c1ccccc12	7.12	8.19	8.04	8.66
Cc1nnc2n1-c1ccc(Cl)cc1C(c1ccccc1Cl)=NC2 [Halcion]	–	–	8.52	–
CC(C)(C)OC(=O)c1ncn2c1C1CCCN1C(=O)c1c(Br)cccc1-2 (stereo not given) [8-Bromo-7-oxo-3b,4,5,6-tetrahydro-7H-2,6a,11b-triaza-benzo[g]cyclopenta[e]azulene-3-carboxylic acid tert-butyl ester]	8.62	8.92	8.89	8.92
Cc1nnc2ccc(-c3cccc(C(F)(F)F)c3)nn12	5.94	5.54	5.50	6.54
COCc1c(C(=O)OC(C)C)ncc2[nH]c3ccc(OCc4ccccc4)cc3c12	8.08	8.36	8.15	–
CC(C)c1nc(-c2ncn3c2CN(C)C(=O)c2c(Cl)cccc2-3)no1 [FG 8205]	8.19	8.43	8.19	8.64
